The source of these data is patent US10766889B2, “Aryl-2,2′-tandem bisthiazole compound and preparation method and use thereof” (SHANGHAI INSTITUTE OF MATERIA MEDICA, CHINESE ACADEMY OF …, priority 2016, dated 2020).

For orientation: bioavailability means the share of a dose that reaches the circulation, judged against a reference dose that is usually intravenous. A low value points to little systemic uptake.

Molecules are shown by their SMILES. Where two headings read alike, the source gives them in different places.

The subject of data set [1] is human multiple myeloma cell line RPMI 8226. Briefly: Cell level anti-tumor activity test, CCK-8, multiple myeloma cells. The data set is classed as cell-based. To be noted: RPMI-8226, 72 h.
Description: According to the cell growth rate, the multiple myeloma cells in the logarithmic growth phase were inoculated into the 96-well culture plate at 100 μL/well, and then 1 μL/well of compound solution was added, and three replicate wells were set for each concentration, and the DMSO solvent control at corresponding concentration was also set.
CCK-8 staining method: after the drug was applied, 10 μL of CCK-8 solution was added to each well, and incubated at 37° C. for 3 h. The OD value at 450 nm and 690 nm was measured by microplate reader.
The inhibition rate (% Inhibiton) and activity (% Activity) of the test substance on the proliferation of multiple myeloma cells were calculated according to the following formula, wherein ODsample refers to the absorbance value of the administration hole (OD450-OD690). OD DMSO refers to the absorbance of the DMSO control well (OD450-OD690).
The logarithm of the concentration was plotted against the activity percentage (% Activity), and the fitted curve was calculated by nonlinear regression. The value of IC50 was calculated by using the GraphPad Prism5 software log(inhibitor) vs response—Variable slope parameter setting. Each set of experiments was repeated three times independently, while 3 replicate wells per concentration.
A short description of data set [2]: Preliminary metabolic experiments, oral bioavailability in mice. To be noted: mouse, in vivo.
The subject of data set [3] is human myeloma RPMI 8226 NOD/SCID mouse xenografts. In words: Pharmacological experiment in human myeloma RPMI 8226 NOD/SCID mouse transplantation model. The data set is classed as in vivo. The text has this: The efficacy of compound H08 in an animal model of human multiple myeloma was investigated.
NOD/SCID mice, female, 5-6 weeks old, body weight 20±3 g, provided by Shanghai Lingchang Biotechnology Co., Ltd., production certificate number: SCXK (Shanghai) 2013-0018. Number of animals per group: 6. IACUC number: 2013-0007 (Nanmo).
Human myeloma RPMI 8226 cell line was preserved by Li Jia et al., Shanghai Institute of Materia Medica. The cell line was inoculated to the right axillary fossa of NOD/SCID mice, and the amount of cells inoculated was 1×10^7 cells each mouse. After the transplanted tumor was formed, it was used in NOD/SCID mice after 2 passages.
The tumor tissue in the vigorous growth period was cut into 1.5 mm^3, and inoculated subcutaneously in the right axilla of the NOD/SCID mice under aseptic conditions. The diameter of the transplanted tumor of NOD/SCID mice were measured with a vernier caliper and the animals were randomly grouped when the tumor growed up to 100-300 mm^3. The grouping scheme is shown in Table 5, and the solvent control group was given an equal amount of blank solvent. The diameter of the transplanted tumor was measured twice a week during the entire experiment, and the body weight of the mice was weighed as well. The tumor volume (TV) was calculated as: TV=½×a×b^2, wherein a and b represent length and width, respectively. The relative tumor volume (RTV) was calculated based on the measured results and the formula was: RTV=Vt/V0. Wherein V0 is the tumor volume measured before grouping and dosing (d0), and Vt is the tumor volume at each measurement.

Data set [4] has as its target T1, human HDAC1 (Homo sapiens, UniProt Q13547).
T1 construct: made in house
In words: Inhibition activity test of histone deacetylase 1 (fluorescence, Ac-Lys-Tyr-Lys(Ac)-AMC substrate). The format is biochemical. To be noted: mean of 3 experiments.
Description: (§1) The inhibitory activity of the example compounds against human histone deacetylases 1, 3 and 6 (i.e., human HDAC1, HDAC3 and HDAC6) was tested.
(§2) Substrates: HDAC1, HDAC 3: Ac-Lys-Tyr-Lys (Ac)-AMC; HDAC6: Boc-lys (Ac)-AMC; all purchased from Shanghai Jill Biochemical Co., Ltd.
(§3) The activity of HDAC1 and HDAC3 was detected using Ac-Lys-Tyr-Lys(Ac)-AMC as substrate, and the activity of HDAC6 was detected using Boc-Lys(Ac)-AMC as substrate, and both were detected by fluorescence detection. […] The initial velocity of the reaction is calculated by detecting the change in the fluorescence signal over time.
(§4) The test compound, enzyme and reaction buffer were well mixed and the substrate was added to start the reaction. […]
(§5) The fluorescence signal intensity at 460 nm was measured, and then the activity percentage (% Activity) of each concentration groups of the sample was calculated. […]
(§6) The logarithm of the concentration was plotted against the percentage of activity, and then the nonlinear regression was used to calculate the fit curve. The value of IC50 was calculated by the software GraphPad Prism 5 formula log(inhibitor) vs. response—Variable slope.
(§7) Each of the above experiments was repeated 3 times, and there were more than 3 replicate wells for each experiment. The average IC50 value of the three experiments was determined as the final indicator of the compound inhibition ability.

For data set [5], the target named is T2, human HDAC6 (Homo sapiens, UniProt Q9UBN7).
T2 construct: made in house
T2 sequence (Q9UBN7 1-1215): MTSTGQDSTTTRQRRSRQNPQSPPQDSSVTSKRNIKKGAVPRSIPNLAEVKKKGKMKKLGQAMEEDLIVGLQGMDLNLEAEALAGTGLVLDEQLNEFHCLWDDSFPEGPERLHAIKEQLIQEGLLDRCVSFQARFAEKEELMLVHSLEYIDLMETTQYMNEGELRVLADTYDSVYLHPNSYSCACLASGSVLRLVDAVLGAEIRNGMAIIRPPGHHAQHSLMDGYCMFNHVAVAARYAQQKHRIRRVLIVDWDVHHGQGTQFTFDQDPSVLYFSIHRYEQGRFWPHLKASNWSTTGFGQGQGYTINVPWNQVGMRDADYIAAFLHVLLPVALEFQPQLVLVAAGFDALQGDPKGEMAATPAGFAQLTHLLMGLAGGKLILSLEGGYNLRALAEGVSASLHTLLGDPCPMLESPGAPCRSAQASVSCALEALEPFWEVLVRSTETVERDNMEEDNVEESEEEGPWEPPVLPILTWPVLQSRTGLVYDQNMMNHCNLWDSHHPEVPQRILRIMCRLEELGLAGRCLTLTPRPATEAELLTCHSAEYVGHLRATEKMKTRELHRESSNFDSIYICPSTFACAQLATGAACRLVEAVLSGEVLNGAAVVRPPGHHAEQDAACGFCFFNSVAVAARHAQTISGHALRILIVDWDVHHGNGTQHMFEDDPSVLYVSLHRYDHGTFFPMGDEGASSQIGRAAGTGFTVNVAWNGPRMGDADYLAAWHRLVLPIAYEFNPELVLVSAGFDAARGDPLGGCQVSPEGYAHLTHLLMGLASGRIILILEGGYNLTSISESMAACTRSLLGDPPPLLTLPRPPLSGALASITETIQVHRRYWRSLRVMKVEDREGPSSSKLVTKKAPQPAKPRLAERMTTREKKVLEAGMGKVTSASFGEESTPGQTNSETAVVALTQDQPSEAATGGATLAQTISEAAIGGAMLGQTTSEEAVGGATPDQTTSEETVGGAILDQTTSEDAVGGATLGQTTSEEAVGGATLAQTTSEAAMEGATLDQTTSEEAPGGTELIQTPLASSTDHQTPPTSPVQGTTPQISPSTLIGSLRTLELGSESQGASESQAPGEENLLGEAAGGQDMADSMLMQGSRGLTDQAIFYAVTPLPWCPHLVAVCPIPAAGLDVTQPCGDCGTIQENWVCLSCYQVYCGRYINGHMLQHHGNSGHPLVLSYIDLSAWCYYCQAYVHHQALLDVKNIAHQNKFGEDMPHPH
In words: Inhibition activity test of histone deacetylase 6 (fluorescence, Boc-Lys(Ac)-AMC substrate). The data set is classed as biochemical. To be noted: mean of 3 experiments.
Description: as §1, §2, §3, §4, §5, §6, §7

In data set [6] the target is T3, human HDAC3 (Homo sapiens, UniProt O15379).
T3 construct: made in house
In words: Inhibition activity test of histone deacetylase 3 (fluorescence, Ac-Lys-Tyr-Lys(Ac)-AMC substrate). The format is biochemical. Conditions: mean of 3 experiments.
Description: as §1, §2, §3, §4, §5, §6, §7

For data set [7] the following is noted: background, subsequent studies on 201410136196.7 compounds; cited from earlier work.
Data set [8] relates to tumor cell. Conditions: WO2012152208, background; read-out: IC50 tumor cell proliferation inhibitory activity; cited from earlier work.
The mark [9] stands for this setting: read-out: IC50 (growth inhibition, RPMI 8226).
Where [10] appears, read: read-out: IC50 (proliferation of RPMI 8226).
[11] abbreviates: 25 mg/kg, p.o., once/day, 3 weeks.
The mark [12] stands for this setting: 25 mg/kg, p.o., once/day, 3 weeks, d21.
[13] abbreviates: 50 mg/kg, p.o., once/day, 3 weeks.
[14] abbreviates: 50 mg/kg, p.o., once/day, 3 weeks, d21.
Where [15] appears, read: 1 mg/kg, i.v., twice/week for 3 weeks.
Where [16] appears, read: 1 mg/kg, i.v., twice/week for 3 weeks, d21.
The mark [17] stands for this setting: 100 mg/kg bid, p.o., 3 weeks, d21.

T3 sequence (O15379 whole entry): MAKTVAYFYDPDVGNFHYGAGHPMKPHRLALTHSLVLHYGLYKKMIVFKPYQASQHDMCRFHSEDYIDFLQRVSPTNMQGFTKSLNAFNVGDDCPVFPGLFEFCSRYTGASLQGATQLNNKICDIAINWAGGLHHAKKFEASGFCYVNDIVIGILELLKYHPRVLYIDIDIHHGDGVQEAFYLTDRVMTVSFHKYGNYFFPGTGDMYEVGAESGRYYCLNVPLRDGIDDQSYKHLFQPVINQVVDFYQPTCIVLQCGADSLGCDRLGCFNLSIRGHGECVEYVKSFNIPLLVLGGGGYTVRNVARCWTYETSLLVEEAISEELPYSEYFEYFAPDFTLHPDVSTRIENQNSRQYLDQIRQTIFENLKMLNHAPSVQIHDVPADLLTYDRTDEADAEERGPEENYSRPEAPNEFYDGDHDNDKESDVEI
T1 sequence (Q13547 whole entry): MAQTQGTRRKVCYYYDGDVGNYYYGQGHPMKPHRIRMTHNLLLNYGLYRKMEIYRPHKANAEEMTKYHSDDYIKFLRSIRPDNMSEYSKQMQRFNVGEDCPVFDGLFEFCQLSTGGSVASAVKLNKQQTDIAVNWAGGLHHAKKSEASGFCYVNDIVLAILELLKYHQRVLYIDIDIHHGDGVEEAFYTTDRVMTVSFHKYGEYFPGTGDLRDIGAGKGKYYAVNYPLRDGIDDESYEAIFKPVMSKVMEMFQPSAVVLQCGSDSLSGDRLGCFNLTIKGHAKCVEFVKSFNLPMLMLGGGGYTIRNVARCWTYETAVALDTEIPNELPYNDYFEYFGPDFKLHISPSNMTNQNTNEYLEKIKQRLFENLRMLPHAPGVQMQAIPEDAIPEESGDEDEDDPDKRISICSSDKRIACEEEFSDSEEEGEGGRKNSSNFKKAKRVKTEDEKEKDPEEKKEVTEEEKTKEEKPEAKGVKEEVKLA

Consider `CC(NC(=O)c1nc(-c2nccs2)sc1C1CC1)c1ccc(C(=O)NO)cc1` (centres unmarked) [Compound H01], for which the IC50 in data set [1] (setting [9]) is 182 ± 15 nM.

Turning to `C[C@H](NC(=O)c1nc(-c2nccs2)sc1C1CC1)c1ccc(C(=O)NO)cc1` [Compound H02], in data set [1] (setting [9]), the IC50 is 28 ± 10 nM.

Turning to `Cc1cnc(-c2nc(C(=O)N[C@@H](C)c3ccc(C(=O)NO)cc3)c(C3CC3)s2)s1` [Compound H05], in data set [1] (setting [9]), the IC50 stood at 123 ± 43 nM.

Consider `Cc1csc(-c2nc(C(=O)N[C@@H](C)c3ccc(C(=O)NO)cc3)c(C3CC3)s2)n1` [Compound H06], for which the IC50 in data set [1] (setting [9]) was found to be 50 ± 22 nM.

With `C[C@H](NC(=O)c1nc(-c2nc3c(s2)CCCC3)sc1C1CC1)c1ccc(C(=O)NO)cc1` [Compound H07], the IC50 in data set [1] (setting [9]) stood at 139 ± 19 nM.

As to `C[C@H](NC(=O)c1nc(-c2ncc(-c3ccccc3)s2)sc1C1CC1)c1ccc(C(=O)NO)cc1` [Compound H08], the IC50 in data set [1] (setting [9]) is 8 nM; in data set [1] (setting [10]), approximately 8 nM. The molecule further came in with a bioavailability in data set [2] of 34.4%. Moreover, the figures for the “TV d0 (average ± SD)” value in data set [3] (setting [11]) and in data set [3] (setting [13]) were 154 ± 44 mm^3 and 154 ± 45 mm^3, respectively. The results for the “body weight d0” value in data set [3] (setting [11]) and in data set [3] (setting [13]) were 22.1 ± 1.3 g and 22.2 ± 1.1 g, respectively. Moreover, the “RTV (Average ± SD)” value in data set [3] (setting [12]) was 8.40 ± 1.35; in data set [3] (setting [14]), 5.48 ± 2.99. Moreover, the results for the “TV d21 (average ± SD)” value in data set [3] (setting [12]) and in data set [3] (setting [14]) were 1,279 ± 353 mm^3 and 821 ± 406 mm^3, respectively. The “body weight d21” value was found to be 23.7 ± 0.8 g in data set [3] (setting [12]) and 22.7 ± 0.9 g in data set [3] (setting [14]). The “change in body weight of the mice during the experiment” value in data set [3] (oral 50 mg/kg for three weeks) was “no change in body weight”.

With `C[C@H](NC(=O)c1nc(-c2ncc(-c3ccc(F)cc3)s2)sc1C1CC1)c1ccc(C(=O)NO)cc1` [Compound H09], the IC50 in data set [1] (setting [9]) stood at 18 ± 6 nM.

In the case of `COc1ccc(-c2cnc(-c3nc(C(=O)N[C@@H](C)c4ccc(C(=O)NO)cc4)c(C4CC4)s3)s2)cc1` [Compound H10], in data set [1] (setting [9]), the IC50 was determined as 12 ± 4 nM.

In the case of `C[C@@H](NC(=O)c1nc(-c2ncc(-c3ccccc3)s2)sc1C1CC1)c1ccc(C(=O)NO)cc1` [Compound H11], the IC50 in data set [1] (setting [9]) came to 326 ± 18 nM.

Take `O=C(NO)c1ccc(CNC(=O)c2nc(-c3ncc(-c4ccccc4)s3)sc2C2CC2)cc1` [Compound H12]: the IC50 in data set [4] was 6.71 ± 0.11 nM; in data set [5], 9.78 ± 0.02 nM; in data set [1] (setting [9]) it was 8 nM; in data set [1] (setting [10]), approximately 8 nM; in data set [6] it was 6.15 ± 0.25 nM.

Turning to `O=C(NCCC(=O)C(F)(F)F)c1nc(-c2nccs2)sc1C1CC1` [GCJ403], the oral bioavailability in data set [7] is 14.7%.

For `CC(C)C[C@H](NC(=O)[C@H](Cc1ccccc1)NC(=O)c1cnccn1)B(O)O` [PS341, Bortezomib, reference compound], in data set [3] (setting [15]), the “TV d0 (average ± SD)” value is reported as 155 ± 48 mm^3 and the “body weight d0” value was found to be 21.9 ± 1.0 g. In addition, in data set [3] (setting [16]), the “RTV (Average ± SD)” value is on record as 7.19 ± 3.58, the “T/C relative tumor growth rate” value came out at 45.27%, the “TV d21 (average ± SD)” value was 1,077 ± 538 mm^3 and the “body weight d21” value is recorded as 23.3 ± 1.7 g.

As to `O=C(CCNC(=O)c1nc(-c2nccs2)sc1C1CC1)NO` [bexanostat, reference compound], the IC50 in data set [8] was less than 400 nM. In addition, the IC50 in data set [1] (setting [9]) came out at 690 ± 410 nM. In data set [3] (100 mg/kg bid, p.o., 3 weeks), the “TV d0 (average ± SD)” value is 155 ± 46 mm^3 and the “body weight d0” value stood at 22.2 ± 1.4 g. Moreover, in data set [3] (setting [17]), the “RTV (Average ± SD)” value was found to be 4.83 ± 0.51, the “TV d21 (average ± SD)” value was 620 ± 87 mm^3 and the “body weight d21” value was found to be 19.8 ± 1.0 g.
